How the values were obtained:
[1] = stability of compound in blends/granulations versus compressed tablets; degradation products analyzed by LC/MS; assay type: physicochemical; conditions: compressed into direct compression or wet granulation tablets with excipients
Text: Although stable when blended or granulated with one or more commonly used pharmaceutical excipients such as, for example, lactose, tribasic calcium phosphate, silicon dioxide, corn starch, sodium starch glycolate, hydroxypropyl cellulose, hydroxypropyl methylcellulose, gelatin, magnesium stearate, microcrystalline cellulose, mannitol, and sorbitol, substituted 3,5-diene steroidal compounds were unexpectedly found to undergo a significant increase in the rate of formation of degradation products when compressed into tablets with such pharmaceutical excipients. This increase in degradation products occurs whether the substituted 3,5-diene steroidal compound and said excipients are formulated in direct compression tablets or in wet granulation tablets.

steroid 5-α-reductase = conditions: cited from earlier work
[2] = Accelerated Stability Screening Method (tablets stored at 85° C., degradation by HPLC); conditions: additive to tablets of substituted 3,5-diene steroidal compounds
Experimental: The stability of N-t-butyl-androst-3,5-diene-17β-carboxamide-3-carboxylic acid (compound A) in various tablet formulations was determined by HPLC analysis.
In Experiment 1 Compound A, microcrystalline cellulose, lactose, corn starch and sodium starch glycolate shown in Table I below, were mixed in the proportions shown. […] The tablets thus prepared were placed in stability chamber at 85° and the results of the stability test were recorded in Table 2 below.
The tablets thus prepared were placed in stability chamber at 85° C. and the results of the stability test were recorded in Table 3 below.
The tablets thus prepared were placed in stability chamber at 85° C. and the results of the stability test were recorded in Table 5 below.
In Experiment 4 Standard Granulation and BHT (for Batch 8) shown in Table 6 below, or stearic acid and BHT (for Batch 9) shown in Table 7 below, were mixed and granulated in the proportions shown and compressed into tablets of about 350 mg total tablet weight. The tablets thus prepared were placed in stability chamber at 85° C. and the results of the stability test were recorded in Tables 6 and 7 below.
The tablets thus prepared were placed in stability chamber at 85° C. and the results of the stability test were recorded in Table 8 below. […]

Row | Structure (SMILES) | formation of degradation products when compressed into tablets [1] | inhibition of steroid 5-α-reductase (steroid 5-α-reductase) | stabilizing effect on tablets (percentage of degradation products) [2]
1 | CC(C)(C)NC(=O)[C@H]1CC[C@H]2[C@@H]3CC=C4C=C(C(=O)O)CC[C@]4(C)[C@H]3CC[C@]12C [Compound A, N-t-butyl-androst-3,5-diene-17β-carboxamide-3-carboxylic acid] | oxidative additions (the 7 keto oxidation product and others) which only occurred when blends or granulations of Compound A were compressed into tablets | useful in inhibiting steroid 5αreductase | 
2 | CCCCCCCCCCCCCCCCCC(=O)O [magnesium stearate] |  |  | do not exhibit such activity
